From patent US6319702A, “Nucleic acids encoding mutant human carboxypeptidase A enzymes” (Glaxo Wellcome, Inc., priority 1993, dated 2001)
Where two headings read alike, the source gives them in different places.

Tests used:
in vivo = settings: mouse, iv
268gly = experiment: Enzyme kinetics of prodrugs with 268gly mutant of human CPA1 (coupled assay); assay type: biochemical; settings: 268gly; 25° C., pH 7.4
Source text: (§1) As indicated herein, the in vivo stable prodrug of the present invention should be a better substrate for a mutant enzyme than the corresponding wild type enzyme in order for the stable prodrug to be activated selectively at the tumour. […] The most relevant kinetic constant in the table is the kcat/Km, which provides an estimate of the second order rate constant for the enzyme catalyzed conversion of prodrug to methotrexate. Thus, the larger the kcat/Km, the more efficient the enzyme with a particular substrate. […] Thus, the single mutation at 268 from thr to gly converted very poor substrates in the wild type enzyme to excellent substrates in the mutant enzyme. […] Thus, the compounds are much better substrates for the mutant enzyme than the wild type enzyme which permits very specific tumor targeted activation of the nontoxic, stable prodrug to the active agent.
(§2) Kinetics were determined by a modification of the coupled assay of Kuefner, et al (1989) Biochemistry 28 2288-2297 in which the product MTX is converted by excess carboxypeptidase G to the pteroate of MTX. In this assay the reaction is followed spectrophotometrically at 315 nm; at this wavelength the change in molar absorbtivity for the coupled reaction was determined to be 9.57 mM^-1 cm^-1. Assays were performed at 25° C. in 25 mM tris-HCl, 100 mM NaCl, pH 7.4. Prodrugs were preincubated at 25° C. with buffer and 17 milliunits of Sigma #C-9658 carboxypeptidase G in 1 ml total volume. Assay was initiated with carboxypeptidase A or the appropriate mutant. Initial velocities were obtained, and standard Michaelis-Menten calculations were used to determine kinetic constants (in Biochemistry, Lehninger, A. L. 1970, Worth Publishers, Inc, NY).

[1] = target: T1, wild type human carboxypeptidase A1 (Homo sapiens, UniProt P15085); experiment: Enzyme kinetics of prodrugs with wild type human carboxypeptidase A1 (coupled assay); assay type: biochemical
T1 sequence (P15085 111-419): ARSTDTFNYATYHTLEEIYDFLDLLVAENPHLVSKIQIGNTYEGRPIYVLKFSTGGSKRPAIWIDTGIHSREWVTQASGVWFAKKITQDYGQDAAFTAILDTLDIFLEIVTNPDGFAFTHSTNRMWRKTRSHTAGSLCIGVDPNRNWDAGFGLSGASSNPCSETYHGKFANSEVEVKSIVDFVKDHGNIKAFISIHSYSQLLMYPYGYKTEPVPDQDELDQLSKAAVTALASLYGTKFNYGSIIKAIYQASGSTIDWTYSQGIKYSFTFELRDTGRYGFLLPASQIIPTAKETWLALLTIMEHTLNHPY
Source text: as §1, §2

268ala = experiment: Enzyme kinetics of prodrugs with 268ala mutant of human CPA1 (coupled assay); assay type: biochemical; settings: 25° C., pH 7.4
Source text: as §1, §2

[2] = Stability and biodistribution of prodrugs in vivo (HPLC of plasma and tissues); parameters: species or system mice (CD-1 nude; BALB/C where indicated); settings: for concentration of prodrug in cecum / concentration of prodrug in feces / concentration of prodrug in kidney / concentration of prodrug in large intestine / concentration of prodrug in liver / concentration of prodrug in small intestine / concentration of prodrug in spleen / concentration of prodrug in tumor / remaining at 0.5 h / remaining at 2 h / concentration at 0.5 h: 50 mg/kg i.p. or i.v., CD-1 nude mice; for stability in vivo (in words): mice; for stability in vivo (in words) / remaining at 0.5 h / remaining at 2 h / concentration at 0.5 h: 50 mg/kg; for remaining at 0.5 h / remaining at 2 h / concentration at 0.5 h: mouse; for concentration at 0.5 h: read-out: concentration of prodrug in plasma
mutant enzyme = experiment: Substrate behaviour with mutant enzyme; assay type: biochemical, human
Source text: This type of compound is not useful for ADEPT.

[3] = cecum, CECUM, 30 min, read-out: stability: percentage of material observed as intact prodrug, cecum
[4] = cecum, CECUM, 120 min, read-out: stability: percentage of material observed as intact prodrug, cecum
[5] = feces, FECES, 30 min, read-out: stability: percentage of material observed as intact prodrug, feces (converted)
[6] = feces, FECES, 120 min, read-out: stability: percentage of material observed as intact prodrug, feces
[7] = kidney, KIDNEY, 30 min, read-out: stability: percentage of material observed as intact prodrug, kidney
[8] = large intestine, LARGE INTESTINE, 30 min, read-out: stability: percentage of material observed as intact prodrug, large intestine
[9] = large intestine, LARGE INTESTINE, 120 min, read-out: stability: percentage of material observed as intact prodrug, large intestine
[10] = liver, LIVER, 30 min, read-out: stability: percentage of material observed as intact prodrug, liver (converted)
[11] = liver, LIVER, 120 min, read-out: stability: percentage of material observed as intact prodrug, liver
[12] = plasma, PLASMA, 30 min, read-out: stability: percentage of material observed as intact prodrug, plasma
[13] = small intestine, SMALL INTESTINE, 30 min, read-out: stability: percentage of material observed as intact prodrug, small intestine
[14] = small intestine, SMALL INTESTINE, 120 min, read-out: stability: percentage of material observed as intact prodrug, small intestine
[15] = spleen, SPLEEN, 30 min, read-out: stability: percentage of material observed as intact prodrug, spleen

SMILES	concentration of prodrug in cecum ([2]; CECUM, 30 min)	concentration of prodrug in cecum ([2]; CECUM, 120 min) [nmol/g]	concentration of prodrug in feces ([2]; FECES, 30 min) [nmol/g]	concentration of prodrug in feces ([2]; FECES, 120 min) [nmol/g]	concentration of prodrug in kidney ([2]; KIDNEY, 30 min) [nmol/g]	concentration of prodrug in large intestine ([2]; LARGE INTESTINE, 30 min) [nmol/g]	concentration of prodrug in large intestine ([2]; LARGE INTESTINE, 120 min) [nmol/g]	concentration of prodrug in liver ([2]; LIVER, 30 min) [nmol/g]	concentration of prodrug in liver ([2]; LIVER, 120 min) [nmol/g]	concentration of prodrug in small intestine ([2]; SMALL INTESTINE, 30 min) [nmol/g]	concentration of prodrug in small intestine ([2]; SMALL INTESTINE, 120 min) [nmol/g]	concentration of prodrug in spleen ([2]; SPLEEN, 30 min) [nmol/g]	stability in vivo (in words) [2]	remaining at 0.5 h [2, 3] [%]	remaining at 2 h [2, 4] [%]	remaining at 0.5 h [2, 5] [%]	remaining at 2 h [2, 6] [%]	remaining at 0.5 h [2, 7] [%]	remaining at 0.5 h [2, 8] [%]	remaining at 2 h [2, 9] [%]	further results
CN(Cc1cnc2nc(N)nc(N)c2n1)c1ccc(C(=O)N[C@@H](CCC(=O)O)C(=O)N[C@@H](Cc2cccc(C3CCCC3)c2)C(=O)O)cc1																					MTD (in vivo): > 40 mg/kg; NOAEL (in vivo): ≥ 40 mg/kg; Km (268gly): 15 µM; kcat (268gly): 1.4 s⁻¹; kcat (symbol ND) ([1]; Human CPA1, rate too slow to assay): ND (not determined; rate to slow assay. kcat ≤ 0.0005/sec.); Km (268ala): 31 µM; kcat (268ala): 0.001 s⁻¹
CN(Cc1cnc2nc(N)nc(N)c2n1)c1ccc(C(=O)N[C@@H](CCC(=O)O)C(=O)N[C@@H](Cc2cccc(C3CCC3)c2)C(=O)O)cc1 [Prodrug 11]	4.5 nmol/g	0.8	426.8	389.8	7.3	2.7	4.4	53.8	47.8	301.3	140.0	2.7	stable in vivo	100	100	92.3	67.9	83.5	74.5	85	concentration of prodrug in kidney ([2]; KIDNEY, 120 min): 3.0 nmol/g; concentration of prodrug in tumor ([2]; TUMOR, 30 min): 4.8 nmol/g; concentration of prodrug in tumor ([2]; TUMOR, 120 min): 2.4 nmol/g; remaining at 2 h ([2]; kidney, KIDNEY, 120 min, read-out: stability: percentage of material observed as intact prodrug, kidney): 82.3%; remaining at 0.5 h [2, 10]: 81.3%; remaining at 2 h [2, 11]: 73.3%; concentration at 0.5 h ([2]; plasma, PLASMA, 30 min): 22.2 µM; remaining at 0.5 h [2, 12]: 97.1%; remaining at 0.5 h [2, 13]: 86.7%; remaining at 2 h [2, 14]: 67.7%; remaining at 0.5 h [2, 15]: 96.5%; remaining at 0.5 h ([2]; tumor, TUMOR, 30 min, read-out: stability: percentage of material observed as intact prodrug, tumor): 100%; remaining at 2 h ([2]; tumor, TUMOR, 120 min, read-out: stability: percentage of material observed as intact prodrug, tumor): 88.1%; substrate for a mutant enzyme (in words) (mutant enzyme): good substrates for a mutant enzyme; substrate for wild type CPA (in words) [1]: not for the wild type enzyme
Nc1nc(N)c(CCCNc2ccc(C(=O)N[C@@H](CCC(=O)O)C(=O)N[C@@H](Cc3cccc(C4CCCC4)c3)C(=O)O)cc2)c(=O)[nH]1 [Prodrug 14, N-(4-((3(2,4-diamino-1,6-dihydro-6-oxo-5-pyrimidinyl)propyl)amino)benzoyl)-L-glutam-1-yl-3-cyclopentyl-L-phenylalanine]	4.l	65.3	535.0	932.8	4.6	9.4	34.6	22.5	42.1	218.3	127.8	2.4	stable in vivo	100	48.8	90.7	88	100	100	76.8	remaining at 0.5 h [2, 10]: 100%; remaining at 2 h [2, 11]: 100%; concentration at 0.5 h ([2]; plasma, PLASMA, 30 min): 1.1 µM; remaining at 0.5 h [2, 12]: 100%; remaining at 0.5 h [2, 13]: 100%; remaining at 2 h [2, 14]: 100%; remaining at 0.5 h [2, 15]: 100%; substrate for a mutant enzyme (in words) (mutant enzyme): good substrates for a mutant enzyme; substrate for wild type CPA (in words) [1]: not for the wild type enzyme
